Measured values as given in US7160901B2, “Substituted indolinones, preparation thereof and their use as pharmaceutical compositions” (Boehringer Ingelheim Pharma GmbH & Co. KG, priority 2000, dated 2007).

tested on: Leiomyosarcoma tumour cell line SK-UT-1B; assay: Test 1: inhibition of the proliferation of cultivated human tumour cells (14C-thymidine incorporation), SK-UT-1B; assay type: cell-based; details: Homo sapiens, Skut1B; in vitro Test 1; SK-UT-1B cells; 48 hours' incubation, then 14C-thymidine for a further 24 hours; IC50 of inhibition of incorporated 14C-thymidine; read-out: Inhibition of SKUT-1B proliferation
Source text: Inhibition of the Proliferation of Cultivated Human Tumour Cells
Cells of the Leiomyosarcoma tumour cell line SK-UT-1B or non-small-cell lung tumour cell line NCI-H460 (obtained from the American Type Culture Collection (ATCC)) were cultivated in Minimum Essential Medium with non-essential amino acids (Gibco), supplemented with sodium pyruvate (1 mMol), glutamine (2 mMol) and 10% foetal calf serum (Gibco) or RPMI1640 Medium (Gibco) and 10% foetal calf serum (Gibco) and harvested in the logarithmic growth phase. Then the SK-UT-1B cells were placed in Cytostar® multi-well plates (Amersham) at a density of 4000 cells per well or 3000 cells per well for NCI-H460 cells and incubated overnight in an incubator. Various concentrations of the compounds (dissolved in DMSO; final concentration: 0.1%) were added to the cells. After 48 hours' incubation, ^14C-thymidine (Amersham) was added to each well and incubation was continued for a further 24 hours. The quantity of ^14C-thymidine which was incorporated into the tumour cells in the presence of the inhibitor and which represents the number of cells in the S phase was measured in a Wallace 1450 Microbeta Liquid Scintillation Counter. IC50 values for the inhibition of the proliferation (=inhibition of incorporated ^14C-thymidine) were calculated, correcting for the background radiation. All the measurements were done twice.
The following Table contains the results obtained with the in vitro Test 1 (++ denotes <0.01 μM, + denotes 0.01–1.0 μM): […]

SMILES	IC50
CN1CCN(Cc2ccc(N/C(=C3\C(=O)Nc4ccc(NS(=O)(=O)c5ccccc5)cc43)c3ccccc3)cc2)CC1 [Example 9, (Z)-3-{1-[4-(4-methylpiperazinomethyl)-phenylamino]-1-phenyl-methylidene}-5-phenylsulphonylamino-2-indolinone]	10 to 1000 nM
O=C1Nc2ccc(NS(=O)(=O)Cc3ccccc3)cc2/C1=C(/Nc1ccc(CN2CCCC2)cc1)c1ccccc1 [Example 58, (Z)-3-{1-[4-(pyrrolidin-1-ylmethyl)-phenylamino]-1-phenyl-methylidene}-5-benzylsulphonylamino-2-indolinone]	10 to 1000 nM
CC1CCCC(C)N1Cc1ccc(N/C(=C2\C(=O)Nc3ccc(NS(=O)(=O)c4cccc([N+](=O)[O-])c4)cc32)c2ccccc2)cc1 (stereo not shown) [Example 66, (Z)-3-{1-[4-((2,6-dimethylpiperidino)-methyl)-phenylamino]-1-phenyl-methylidene}-5-(3-nitrophenylsulphonylamino)-2-indolinone]	< 10 nM
CCS(=O)(=O)Nc1ccc2c(c1)/C(=C(/Nc1ccc(CN(C)C)cc1)c1ccccc1)C(=O)N2 [Example 70, (Z)-3-{1-[4-dimethylaminomethyl-phenylamino]-1-phenyl-methylidene}-5-ethylsulphonylamino-2-indolinone]	10 to 1000 nM
CCS(=O)(=O)Nc1ccc2c(c1)/C(=C(/Nc1ccc(CN(C)Cc3ccccc3)cc1)c1ccccc1)C(=O)N2 [Example 71, (Z)-3-{1-[4-(N-benzyl-N-methyl-aminomethyl)-phenylamino]-1-phenyl-methylidene}-5-ethylsulphonylamino-2-indolinone]	10 to 1000 nM
CCS(=O)(=O)Nc1ccc2c(c1)/C(=C(/Nc1ccc(CCN(C)C)cc1)c1ccccc1)C(=O)N2 [Example 72, (Z)-3-{1-[4-(2-dimethylamino-ethyl)-phenylamino]-1-phenyl-methylidene}-5-ethylsulphonylamino-2-indolinone]	10 to 1000 nM
O=C1Nc2ccc(NS(=O)(=O)c3cccnc3)cc2/C1=C(/Nc1ccc(CN2CCCC2)cc1)c1ccccc1 [Example 80, (Z)-3-{1-[4-(pyrrolidin-1-ylmethyl)-phenylamino]-1-phenyl-methylidene}-5-(pyridin-3-ylsulphonylamino)-2-indolinone]	< 10 nM
O=C1Nc2ccc(NS(=O)(=O)c3cccnc3)cc2/C1=C(/Nc1ccc(C(=O)N2CCCC2)cc1)c1ccccc1 [Example 88, (Z)-3-{1-[4-(pyrrolidin-1-ylcarbonyl)-phenylamino]-1-phenyl-methylidene}-5-(pyridin-3-ylsulphonylamino)-2-indolinone]	10 to 1000 nM
CCS(=O)(=O)Nc1ccc2c(c1)/C(=C(/Nc1ccc(CN3CCCCC3)cc1)c1ccccc1)C(=O)N2 [Example 99, (Z)-3-{1-[4-(piperidinomethyl)-phenylamino]-1-phenyl-methylidene}-5-ethylsulphonylamino-2-indolinone]	< 10 nM
CC(C)S(=O)(=O)Nc1ccc2c(c1)/C(=C(/Nc1ccc(CN3CCCCC3)cc1)c1ccccc1)C(=O)N2 [Example 101, (Z)-3-{1-[4-(piperidinomethyl)-phenylamino]-1-phenyl-methylidene}-5-isopropylsulphonylamino-2-indolinone]	< 10 nM
O=C1Nc2ccc(NS(=O)(=O)c3cccc4ccccc34)cc2/C1=C(/Nc1ccc(CN2CCCCC2)cc1)c1ccccc1 [Example 104, (Z)-3-{1-[4-(piperidinomethyl)-phenylamino]-1-phenyl-methylidene}-5-(naphthalin-1-ylsulphonylamino)-2-indolinone]	< 10 nM
O=C1Nc2ccc(NS(=O)(=O)c3cccc([N+](=O)[O-])c3)cc2/C1=C(/Nc1ccc(CN2CCCCC2)cc1)c1ccccc1 [Example 112, (Z)-3-{1-[4-(piperidinomethyl)-phenylamino]-1-phenyl-methylidene}-5-(3-nitrophenylsulphonylamino)-2-indolinone]	< 10 nM
Cc1noc(C)c1S(=O)(=O)Nc1ccc2c(c1)/C(=C(/Nc1ccc(CN3CCCCC3)cc1)c1ccccc1)C(=O)N2 [Example 117, (Z)-3-{1-[4-(piperidinomethyl)-phenylamino]-1-phenyl-methylidene}-5-(3,5-dimethylisoxazol-4-ylsulphonylamino)-2-indolinone]	10 to 1000 nM
O=C1Nc2ccc(NS(=O)(=O)C3CC3)cc2/C1=C(/Nc1ccc(CN2CCCCC2)cc1)c1ccccc1 [Example 120, (Z)-3-{1-[4-(piperidinomethyl)-phenylamino]-1-phenyl-methylidene}-5-cyclopropylsulphonylamino-2-indolinone]	< 10 nM
O=C1Nc2ccc(N(c3cccnc3)S(=O)(=O)c3ccccc3)cc2/C1=C(/Nc1ccc(CN2CCCCC2)cc1)c1ccccc1 [Example 134, (Z)-3-{1-[4-(piperidinomethyl)-phenylamino]-1-phenyl-methylidene}-5-(pyridin-3-ylphenylsulphonylamino)-2-indolinone]	< 10 nM
O=C1Nc2ccc(NS(=O)(=O)C3CC3)cc2/C1=C(/Nc1ccc(CN2CCCC2)cc1)c1ccccc1 [Example 142, (Z)-3-{1-[4-(pyrrolidin-1-ylmethyl)-phenylamino]-1-phenyl-methylidene}-5-cyclopropylsulphonylamino-2-indolinone]	10 to 1000 nM
CCCS(=O)(=O)Nc1ccc2c(c1)/C(=C(/Nc1ccc(CN3CCCC3)cc1)c1ccccc1)C(=O)N2 [Example 143, (Z)-3-{1-[4-(pyrrolidin-1-ylmethyl)-phenylamino]-1-phenyl-methylidene}-5-propylsulphonylamino-2-indolinone]	10 to 1000 nM
CCS(=O)(=O)Nc1ccc2c(c1)/C(=C(/Nc1ccc(CN3CCCC3)cc1)c1ccccc1)C(=O)N2 [Example 144, (Z)-3-{1-[4-(pyrrolidin-1-ylmethyl)-phenylamino]-1-phenyl-methylidene}-5-ethylsulphonylamino-2-indolinone]	10 to 1000 nM

Second part, the compound after the results:

IC50	SMILES
10 to 1000 nM	CS(=O)(=O)N(CCN)c1ccc(N/C(=C2\C(=O)Nc3ccc(NS(=O)(=O)c4ccccc4)cc32)c2ccccc2)cc1 [Example 2, (Z)-3-{1-[4-(N-(2-aminoethyl)-N-methylsulphonyl-amino)-phenylamino]-1-phenyl-methylidene}-5-phenylsulphonylamino-2-indolinone]
< 10 nM	CN(C)CCN(c1ccc(N/C(=C2\C(=O)Nc3ccc(NS(=O)(=O)c4ccccc4)cc32)c2ccccc2)cc1)S(=O)(=O)c1ccccc1 [Example 4, (Z)-3-{1-[4-(N-(2-dimethylaminoethyl)-N-phenylsulphonyl-amino)-phenylamino)-1-phenyl-methylidene}-5-phenylsulphonylamino-2-indolinone]
10 to 1000 nM	O=C1Nc2ccc(NS(=O)(=O)c3ccccc3)cc2/C1=C(/Nc1ccc(CN2CCCC2)cc1)c1ccccc1 [Example 12, (Z)-3-{1-[4-(pyrrolidin-1-ylmethyl)-phenylamino]-1-phenyl-methylidene}-5-phenylsulphonylamino-2-indolinone]
10 to 1000 nM	CC(=O)N(C)c1ccc(N/C(=C2\C(=O)Nc3ccc(NS(=O)(=O)c4ccccc4)cc32)c2ccccc2)cc1 [Example 20, (Z)-3-{1-[4-(N-methyl-N-acetyl-amino)-phenylamino]-1-phenyl-methylidene}-5-phenylsulphonylamino-2-indolinone]
10 to 1000 nM	O=C1Nc2ccc(NS(=O)(=O)c3ccccc3)cc2/C1=C(/Nc1ccccc1)c1ccccc1 [Example 22, (Z)-3-(1-phenylamino-1-phenyl-methylidene)-5-phenylsulphonylamino-2-indolinone]
10 to 1000 nM	O=C1Nc2ccc(NS(=O)(=O)c3ccccc3)cc2/C1=C(/Nc1ccc(Cl)cc1)c1ccccc1 [Example 23, (Z)-3-[1-(4-chlorophenylamino)-1-phenyl-methylidene]-5-phenylsulphonylamino-2-indolinone]
< 10 nM	CCC(=O)NCCN(C(=O)CC)c1ccc(N/C(=C2\C(=O)Nc3ccc(NS(=O)(=O)c4ccccc4)cc32)c2ccccc2)cc1 [Example 31, (Z)-3-{1-[4-(N-(2-propionylamino-ethyl)-N-propionyl-amino)-phenylamino]-1-phenyl-methylidene}-5-phenylsulphonylamino-2-indolinone]
10 to 1000 nM	CN(c1ccc(N/C(=C2\C(=O)Nc3ccc(NS(=O)(=O)c4ccccc4)cc32)c2ccccc2)cc1)S(C)(=O)=O [Example 42, (Z)-3-[1-(4-(N-methyl-N-methylsulphonyl-amino)-phenylamino)-1-phenyl-methylidene]-5-phenylsulphonylamino-2-indolinone]
< 10 nM	CN(C(=O)CN1CCCCC1)c1ccc(N/C(=C2\C(=O)Nc3ccc(NS(=O)(=O)c4ccccc4)cc32)c2ccccc2)cc1 [Example 56, (Z)-3-[1-(4-(N-methyl-N-piperidinomethylcarbonyl-amino)-phenylamino)-1-phenyl-methylidene]-5-phenylsulphonylamino-2-indolinone]

same assay, conditions: in vitro Test 1; SK-UT-1B cells; 48 hours' incubation, then 14C-thymidine for a further 24 hours; IC50 of inhibition of incorporated 14C-thymidine; read-out: Inhibition of SKUT-1B proliferation

IC50	SMILES
< 10 nM	CN(C)Cc1ccc(N/C(=C2\C(=O)Nc3ccc(NS(=O)(=O)c4ccccc4)cc32)c2ccccc2)cc1 [Example 36, (Z)-3-[1-(4-dimethylaminomethyl-phenylamino)-1-phenyl-methylidene]-5-phenylsulphonylamino-2-indole]
